The subject of the test is HuNoV GI.1 replicon. Description: HuNoV GI replicon assay (HGT-NV cells, qRT-PCR). The format is cell-based, human norovirus GI.1. On the procedure: Given that in this system the gene encoding for the major capsid protein is replaced by a neomycin resistance gene, no new virus particles will be produced but the non-structural proteins are expressed and the replication of the genomic RNA can be studied.
Cells and virus: MNV (virus strain MNV-1.CW1) was propagated in RAW 264.7 cells grown in DMEM (Life Technologies, Gent, Belgium) supplemented with 10% or 2% FBS, 2 mM L-glutamine, 20 mM HEPES, 0.075 g/L sodium bicarbonate, 1 mM sodium pyruvate, 100 U penicillin/mL and 100 µg/mL streptomycin at 37 °C in a humidified atmosphere of 5% CO2. The human norovirus GI.1 replicon harboring gastric tumor-1 cell line (HGT-NV) (kindly provided by Dr. Ian Goodfellow, University of Cambridge) was maintained in DMEM supplemented with 10% FBS, 2mM L-glutamine, 0.075 g/L sodium bicarbonate and 1.0 mg/ml of Geneticin (G418; Life Technologies), at 37 °C in a humidified atmosphere of 5% CO2[34].
Antiviral assay with the HGT-NV replicon: The inhibitory effect of Compounds on human norovirus replication was assessed by quantification of the levels of HuNoV GI replicon RNA and of the reference (housekeeping) gene β-actin mRNA [by quantitative reverse transcription polymerase chain reaction (qRT-PCR)]. To this end, HGT cells (2000 cells/well) were seeded in 96-well plates, in complete DMEM without the selection marker G418. Following an incubation period of 24 h, a serial dilution of rupintrivir was added to the cultures. After 72 h of incubation, cell monolayers were washed with phosphate-buffered saline (PBS) and collected for quantification of RNA load by qRT-PCR. Intracellular RNA was extracted from cells using the cell-to-cDNA lysis buffer (Ambion, Life Technologies). For detection of HuNoV GI replicon RNA, forward (5′-CCG GCT ACC TGC CCA TTC-3′), reverse (5′-CCAGATCATCCTGATCGACAAG-3′) primers and probe (5′-FAM-ACATCGCATCGAGCGAGCACGTAC-TAMRA-3′) for the neomycin gene were used. For detection of β-actin mRNA, forward (5′-GGCATCCACGAAACTACCTT-3′), reverse (5′-AGCACTGTGTTGGCGTACAG-3′) primers and probe (5′-HEX-ATCATGAAGTGTGACGTGGACATCCG-BHQ1–3′) were used. One-step qRT-PCR was performed in a 20 µL reaction mixture containing 10 µl 2X iTaq Universal SYBR® Green one step reaction mix (Bio-rad, California, USA), 5.17 µl RNAse free water, 0.5 µl of iScript reverse transcriptase (Bio-rad, California, USA), 4 µl of the template RNA and either 300 nM of HuNoV GI replicon primers and probe, 300 nM of β-actin primers and 200 nM of probe. Cycling conditions were: reverse transcription at 50 °C for 10 min, initial denaturation at 95 °C for 3 min, followed by 40 cycles of denaturation at 95 °C for 15 s, annealing and extension at 60 °C for 30 seconds (Roche Lightcycler®96, Roche Diagnostics, Belgium). To determine the relative expression levels of HuNoV GI replicon RNA, β-actin was used as a normalizer and ratios were calculated using the Pfaffl method. The Expression Ratio (HuNoV GI Replicon/β-actin) was calculated as: Expression Ratio = (E HuNoV)^ΔCT, HuNoV (CC – TC)/(Eβ-actin)^ΔCT, β-actin (CC – TC), where E HuNoV and Eβ-actin represent the amplification efficiency (E = 10^–1/slope) for the HuNoV GI replicon and β-actin qRT-PCR reactions, respectively. ΔCT, HuNoV (CC – TC) is the Ct of untreated control cells (CC) minus the Ct of cells treated with a compound concentration (TC) obtained with HuNoV GI replicon primers and probe. ΔCT, β-actin (CC – TC) is the Ct of untreated control cells (CC) minus the Ct of cells treated with a compound concentration (TC) obtained with β-actin primers and probe. Efficiency values (E HuNoV and Eβ-actin) were determined for each qRT-PCR reaction.
A general note: A replicon is a self-replicating genome or part of one, used to study replication in cells.

[1] abbreviates: HuNoV GI replicon in HGT-1 cells, 72 h, replicon RNA by qRT-PCR.
The mark [2] stands for this setting: Norwalk virus, HGT-1, 72 h, read-out: EC50 values (column head printed 'M'), HuNoV GI replicon in HGT-1 cells, replicon RNA by qRT-PCR.

Where two headings read alike, the source gives them in different places. Where only a bound is given, the exact number is not on record here.

Broadly, the EC50 is the concentration needed to bring the measured effect to its halfway point.

For the compound `O=C(NC(=S)Nc1ccc(N2CCN(C(=O)c3cccs3)CC2)cc1)c1sc2ccccc2c1Cl` [Compound 48, 3-Chloro-N-((4-(4-(thiophene-2-carbonyl)piperazin-1-yl)phenyl)carbamothioyl)benzo[b]thiophene-2-carboxamide, reference compound], the “EC50 values (column head printed 'M')” value under setting [1] is “do not display any significant antiviral activity”. The 50% effective concentration (EC50) under setting [2] is over 100 µM.
`Cc1ccc(C(=O)NC(=S)Nc2ccc(N3CCN(C(=O)c4cccs4)CC3)cc2)cc1` [Compound 52, 4-Methyl-N-((4-(4-(thiophene-2-carbonyl)piperazin-1-yl)phenyl)carbamothioyl)benzamide]: the “EC50 values (column head printed 'M')” value under setting [1] is listed as “low micromolar range”. The EC50 came out at 6 µM under setting [2] and 6.1 ± 3.9 µM (read-out: EC50 values (column head printed 'M'), HuNoV GI replicon in HGT-1 cells, 72 h, replicon RNA by qRT-PCR).
Regarding `O=C(NC(=S)Nc1ccc(N2CCN(C(=O)c3nccs3)CC2)cc1)c1sc2ccccc2c1Cl` [Compound 56, 3-Chloro-N-((4-(4-(thiazole-2-carbonyl)piperazin-1-yl)phenyl)carbamothioyl)benzo[b]thiophene-2-carboxamide], the “EC50 values (column head printed 'M')” value under setting [1] is “do not display any significant antiviral activity”. Further, the EC50 under setting [2] was over 100 µM.

Values taken from paper PMC6895199, “A new antiviral scaffold for human norovirus identified with computer-aided approaches on the viral polymerase” (Scientific Reports, 2019).
